According to patent US4362664A, “Vinblastine oxazolidinedione disulfides and related compounds” (priority 1980, dated 1982):

Key:
[1] = test system: Chinese hamster ovary cells; assay: standard mitotic inhibition test employing Chinese hamster ovary cells; type: cell-based; conditions: dose 20-2 mcg/ml for accumulation in mitosis; CHO cells
From the text: As previously stated, the compounds of this invention are antimitotics, and can adversely affect the growth of malignant cells. This activity is manifested in a standard mitotic inhibition test employing Chinese hamster ovary cells.
In the Table, column 1 gives the name of the compound, column 2 gives the dose in mcg/ml for accumulation in mitosis and column 3, the percent mitotic accumulation as a range.

P388/V = assay: transplanted tumor in mice: P388/V; type: in vivo; conditions: every fourth day (three doses)
Protocol: (§1) The bases of this invention and their salts preparable by the processes disclosed herein are active also in vivo against some but not all transplanted tumors in mice.
(§2) The following table--Table 2--gives the results of this experiment in which mice bearing the transplanted tumor were treated with a compound of this invention. In the table, column 1 gives the name of the compound; column 2, the name of the tumor; column 3, the dosage given; and column 4, the percent inhibition of tumor growth (I) or prolongation of life (PL). The following dosage regimen was employed: every fourth day (three doses) starting on the first day after inoculation.

P388 = assay: transplanted tumor in mice: P388; type: in vivo; conditions: every fourth day (three doses)
Protocol: as §1, §2

Structure (SMILES) | percent mitotic accumulation as a range [1] | Percent Prolongation of life (PL) (P388/V; 1.5 mg/kg) | Percent Prolongation of life (PL) (P388/V; 2.0 mg/kg, * = below 30, not statistically significant) | Percent Prolongation of life (PL) (P388; P388, 1.0 mg/kg) | Percent Prolongation of life (PL) (P388; P388, 1.2 mg/kg) | Percent Prolongation of life (PL) (P388; P388, 1.4 mg/kg)
CC[C@]1(O)C[C@H]2CN(CCc3c([nH]c4ccccc34)[C@@](C(=O)OC)(c3cc4c(cc3OC)N(C)[C@H]3[C@]5(OC(=O)N(CCSSCCNC(=O)OC)C5=O)[C@H](OC(C)=O)[C@]5(CC)C=CCN6CC[C@]43[C@@H]65)C2)C1 [Example 1, Vinblastine 3"-(β-[β-(methoxycarbonylamino)ethyldithio]ethyl)-3-spiro-5"-oxazolidine-2",4"-dione] | 7-10% | 30% | 25% |  |  | 
CC[C@]1(O)C[C@H]2CN(CCc3c([nH]c4ccccc34)[C@@](C(=O)OC)(c3cc4c(cc3OC)N(C)[C@H]3[C@]5(OC(=O)N(CCS)C5=O)[C@H](O)[C@]5(CC)C=CCN6CC[C@]43[C@@H]65)C2)C1 [4-desacetyl vinblastine 3"-(β-thioethyl)-3-spiro-5"-oxazolidine-2",4"-dione] |  |  |  | 52% | 65% | 77%
CC[C@]1(O)C[C@H]2CN(CCc3c([nH]c4ccccc34)[C@@](C(=O)OC)(c3cc4c(cc3OC)N(C)[C@H]3[C@]5(OC(=O)N(CCS)C5=O)[C@H](OC(C)=O)[C@]5(CC)C=CCN6CC[C@]43[C@@H]65)C2)C1 [Example 2, Vinblastine 3"-(β-thioethyl)-3-spiro-5"-oxazolidine-2",4"-dione] | 10-15% |  |  |  |  | 
